This note sets out measurements from patent publication US20110212053A1, “PHOSPHATIDYLINOSITOL 3 KINASE INHIBITORS” (priority 2008, published 2011).

Several values for one entry are separate records, joined by “and”; a condition that tells them apart may be missing. Equal entries are not always repeated.

By EC50 is commonly meant the concentration needed to bring the measured effect to its halfway point. As usually defined, the IC50 is the concentration at which inhibition is half-maximal. Broadly, the inhibition is the drop in the measured response relative to a control, in per cent.

In test [1] the test system is HCT116 colorectal carcinoma cells. The test can be described thus: Caspase-GLO 3/7 assay, HCT116. Format: cell-based. As to conditions: Homo sapiens, HCT-116, 24 hours, CaspaseGLO.
Method: Caspase-GLO 3/7 Assay: To determine the ability of the PI3K inhibitor compounds of the invention to induce programmed cell death (apoptosis), caspase activity was monitored as an indicator of apoptosis. Human HCT116 colorectal carcinoma and PANC-1 pancreatic carcinoma cells were plated at 2000-8000 cells per well in white 96-well microplates and allowed to attach overnight. The following day the medium was removed by aspiration and the cells were washed once with 200 μL of DMEM containing 0.5% (v/v) FBS (assay medium). The cells were then incubated in 100 μL of assay medium containing increasing concentrations of the PI3K inhibitor compounds (from 0.003 μM to 10.0 μM in half-log dilutions) for 24 to 72 hours. Caspase activity was detected using the Caspase-GLO 3/7 assay (Promega) according to the manufacturer's instructions and measured on a Spectramax M5 multi-detection microplate reader (Molecular Devices Corp.). EC50 values were calculated via non-linear regression using GraphPad Prism data analysis software.
HCT116 cells were treated overnight with a pyrazoloquinoline compound of the invention, or with a commercially available dual PI3K(α,β,δ,γ)/mTOR inhibitor, or with a commercially available PI3K(α,β,δ,γ)-only inhibitor at concentrations of 0.5, 1.0 and 5.0 μM.
Test [2] has as its target T1, MELK (Homo sapiens, UniProt Q14680).
T1 construct: purchased Invitrogen or Millipore
As to the kind of experiment: MELK kinase assay (KinaseGLO). Format: biochemical. The method, then: (§1) Compound Preparation: KinaseGLO assay: 30× stocks of inhibitors were prepared in DMSO. A 10 mM master stock was prepared and all other stocks were generated by serial dilution of this master stock in DMSO. The final concentration of DMSO in the kinase reaction was 3.3% (v/v).
MELK kinase assay: The ability of compounds to inhibit MELK was also determined using the KinaseGLO assay. Briefly, MELK enzymes was thawed and diluted to a final concentration of 2.64 ng/μL in reaction buffer (50 mM HEPES, pH7.5, 100 mM NaCl, 2.0 mM DTT, 3.0 mM MgCl2, 1.0 mM EGTA, 10 μM ATP). 19 μl of this kinase reaction mixture was aliquoted into test wells (50 ng MELK/well) in a Microfluor2 white 96-well plate (Thermo Scientific). As a preincubation step, 1 μl of 30× compound dilutions was added to the appropriate test wells to generate a ten point dose-response ranging from 0.0 μM-10 μM inhibitor, and incubated for 15 minutes at 4° C. The reaction was started by addition of 10 μL of 150 μM ZIPtide peptide substrate resuspended in reaction buffer (50 μM final concentration of ZIPtide). Reactions were incubated at room temperature for 2 hours prior to addition of 30 μL of KinaseGLO reagent and development as described. Maximal luminescence (no MELK activity/maximal MELK inhibition) was determined from reaction buffer plus peptide substrate only controls. The minimal signal (maximal MELK activity) was determined by the 0.0 μM compound (DMSO only) control. IC50 values were calculated via non-linear regression using GraphPad Prism data analysis software. […]
(§2) Compounds of the invention were assayed against the select kinases using the KinaseGLO assay (MELK) or the radiometric assay (PIM, TRKC, PDGFRα(D842V), MNK1 and mTOR). IC50 values were determined using 8-10 point half-log dose dilutions and calculated via nonlinear regression analysis using Graphpad Prism data analysis software.

The target in test [3] is PDGFRα(D842V) (Homo sapiens, UniProt P16234, D842V). The test can be described thus: Radiometric HotSpot kinase assay, PDGFRα(D842V). Format: biochemical. The method, then: (§3) Kinase Profiling: The inhibitory activity of the PI3K inhibitor compounds of the invention against 250 protein kinases was determined via the radiometric HotSpot Kinase Profiling (Reaction Biology Corporation, Malvern, Pa.). Compounds were profiled at a final concentration of 1 μM compound against recombinant protein kinases in the presence of 10 μM ATP and data were expressed as percent inhibition. IC50 and/or percent inhibition at 1 μM compound values were determined for select compounds against a subset of kinases (MELK, MNK1, MNK2, mTOR, PIM-1. TRKC, and PDGFRα(D842V)).
as §2

Test [4] addresses T2, PI3Kα (Homo sapiens, UniProt P42336).
T2 construct: purchased Invitrogen or Millipore
The test can be described thus: KinaseGLO luminescent PI3-kinase assay, PI3Kα. Format: biochemical. The method, then: as §1
PI3-Kinase Assay: The KinaseGLO® Luminescent Kinase Assay (Promega) is a luciferin-luciferase based luminescent assay that utilizes a proprietary thermostable luciferase to quantify the ATP remaining in a solution after a kinase reaction. The luminescent signal generated using KinaseGLO® directly correlates with ATP concentration, and therefore inversely correlates with kinase activity.
PI3K enzyme sample was thawed and diluted to 100 ng/μL in enzyme dilution buffer (50 mM HEPES, pH7.5, 3.0 mM MgCl2, 1.0 mM EGTA) and stored on ice. PI3Kα enzyme was diluted to a final concentration of 1 ng/μL in reaction buffer (for PI3Kα; 50 mM HEPES, pH7.5, 100 mM NaCl, 2.0 mM DTT, 3.0 mM MgCl2, 1.0 mM EGTA, 10 μM ATP) and gently mixed. 25 μL of this kinase reaction was then aliquoted into test wells in a Microfluor2 white 96-well plate (Thermo Scientific). As a preincubation step, 1 μl of 30× compound dilutions was added to the appropriate test wells to generate a ten point dose-response ranging from 0.0 μM-10 μM inhibitor. The enzyme-inhibitor mixture was then incubated for 30 minutes at 4° C. After this preincubation, […] (50 μM final concentration) was added to each test well to initiate the kinase reaction. Reactions were incubated at room temperature for 2 hours with moderate shaking. The KinaseGLO® luminescent reagent (Promega) was prepared according to the manufacturer's instructions. Both the KinaseGLO® buffer and substrate were allowed to thaw and equilibrate at room temperature for two hours prior to mixing and use. The PI3-kinase reaction was terminated by the addition of 30 μL of reconstituted KinaseGLO® reagent to each reaction well and then incubated in the dark for 10 minutes at room temperature. Luminescent signal was detected using a SpectraMax M5 (Molecular Devices). Maximal luminescence (no PI3K activity/maximal PI3K inhibition) was determined from reaction buffer plus SC-PI substrate only controls. The minimal signal (maximal PI3K activity) was determined by the 0.0 μM compound (DMSO only) control. IC50 values were calculated via non-linear regression using GraphPad Prism data analysis software.
Compounds were assayed against the Class I PI3Kα, PI3Kβ, PI3Kγ, PI3Kδ, PI3Kα(H1047R) and PI3Kα(E545K) in the KinaseGLO assay as described in Example 2, and against the Class IV PI3K mTOR in the radiometric assay. IC50 values (μM) were determined using 8-10 point half-log dose dilutions and calculated via nonlinear regression analysis using Graphpad Prism data analysis software.
(Kinase-Glo measures the ATP left after a reaction by luminescence.)

In test [5] the target is PIM-1 (Homo sapiens, UniProt P11309). As to the kind of experiment: Radiometric HotSpot kinase assay, PIM-1. Type of test: biochemical. The note with it: 1 μM compound, 10 μM ATP. The method, then: as §3, §2
For test [6], the target named is TRKC (Homo sapiens, UniProt Q16288). The test can be described thus: Radiometric HotSpot kinase assay, TRKC. Format: biochemical. The note with it: 1 μM compound, 10 μM ATP. Here is the method: as §3, §2
Sequence of TRKC (Q16288 32-839): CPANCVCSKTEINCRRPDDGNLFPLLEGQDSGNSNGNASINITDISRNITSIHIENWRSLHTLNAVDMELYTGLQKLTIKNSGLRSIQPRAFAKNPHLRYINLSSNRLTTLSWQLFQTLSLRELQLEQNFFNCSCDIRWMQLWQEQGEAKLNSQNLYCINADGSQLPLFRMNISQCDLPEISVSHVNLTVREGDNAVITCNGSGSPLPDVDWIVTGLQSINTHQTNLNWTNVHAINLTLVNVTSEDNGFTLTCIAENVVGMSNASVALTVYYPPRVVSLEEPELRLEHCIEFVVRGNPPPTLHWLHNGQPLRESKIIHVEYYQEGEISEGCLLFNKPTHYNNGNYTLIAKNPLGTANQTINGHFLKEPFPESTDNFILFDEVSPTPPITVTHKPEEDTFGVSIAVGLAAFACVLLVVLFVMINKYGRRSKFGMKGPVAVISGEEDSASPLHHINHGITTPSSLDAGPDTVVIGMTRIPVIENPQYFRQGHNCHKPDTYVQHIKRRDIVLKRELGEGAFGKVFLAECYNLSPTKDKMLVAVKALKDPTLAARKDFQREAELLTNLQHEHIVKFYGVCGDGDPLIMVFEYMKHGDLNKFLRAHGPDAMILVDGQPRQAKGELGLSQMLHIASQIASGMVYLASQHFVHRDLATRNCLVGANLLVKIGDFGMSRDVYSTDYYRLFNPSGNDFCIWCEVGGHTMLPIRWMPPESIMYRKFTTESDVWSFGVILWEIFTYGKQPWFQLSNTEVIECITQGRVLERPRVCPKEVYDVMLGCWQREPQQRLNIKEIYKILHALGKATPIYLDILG

T2 sequence (P42336 whole entry): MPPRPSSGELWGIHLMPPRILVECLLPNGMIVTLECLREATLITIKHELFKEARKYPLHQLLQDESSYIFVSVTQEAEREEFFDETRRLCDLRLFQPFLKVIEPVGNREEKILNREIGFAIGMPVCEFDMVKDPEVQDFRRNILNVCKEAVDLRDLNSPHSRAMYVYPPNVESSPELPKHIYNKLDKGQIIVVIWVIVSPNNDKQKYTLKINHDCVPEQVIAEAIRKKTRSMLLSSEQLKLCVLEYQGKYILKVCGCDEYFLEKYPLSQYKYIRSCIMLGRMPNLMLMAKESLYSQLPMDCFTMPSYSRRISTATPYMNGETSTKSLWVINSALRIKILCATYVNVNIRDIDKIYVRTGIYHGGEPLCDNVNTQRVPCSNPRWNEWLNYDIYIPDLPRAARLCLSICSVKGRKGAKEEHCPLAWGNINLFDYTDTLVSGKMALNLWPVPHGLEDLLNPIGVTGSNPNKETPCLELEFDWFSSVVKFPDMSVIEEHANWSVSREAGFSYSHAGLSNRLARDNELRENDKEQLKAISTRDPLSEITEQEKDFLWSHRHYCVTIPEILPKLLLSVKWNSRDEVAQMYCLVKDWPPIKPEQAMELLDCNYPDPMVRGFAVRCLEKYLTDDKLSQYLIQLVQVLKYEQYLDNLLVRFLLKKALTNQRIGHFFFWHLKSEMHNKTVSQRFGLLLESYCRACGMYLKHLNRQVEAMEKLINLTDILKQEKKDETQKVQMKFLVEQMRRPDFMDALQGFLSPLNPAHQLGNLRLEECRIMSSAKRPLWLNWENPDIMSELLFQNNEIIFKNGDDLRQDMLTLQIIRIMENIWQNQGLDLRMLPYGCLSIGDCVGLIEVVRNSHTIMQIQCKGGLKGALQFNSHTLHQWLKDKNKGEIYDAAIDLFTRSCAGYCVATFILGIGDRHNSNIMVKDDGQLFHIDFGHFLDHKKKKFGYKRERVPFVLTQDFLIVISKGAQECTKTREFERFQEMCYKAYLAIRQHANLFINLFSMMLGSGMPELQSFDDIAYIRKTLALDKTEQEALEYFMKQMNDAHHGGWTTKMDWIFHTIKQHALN
T2 sequence (P27986 whole entry partner): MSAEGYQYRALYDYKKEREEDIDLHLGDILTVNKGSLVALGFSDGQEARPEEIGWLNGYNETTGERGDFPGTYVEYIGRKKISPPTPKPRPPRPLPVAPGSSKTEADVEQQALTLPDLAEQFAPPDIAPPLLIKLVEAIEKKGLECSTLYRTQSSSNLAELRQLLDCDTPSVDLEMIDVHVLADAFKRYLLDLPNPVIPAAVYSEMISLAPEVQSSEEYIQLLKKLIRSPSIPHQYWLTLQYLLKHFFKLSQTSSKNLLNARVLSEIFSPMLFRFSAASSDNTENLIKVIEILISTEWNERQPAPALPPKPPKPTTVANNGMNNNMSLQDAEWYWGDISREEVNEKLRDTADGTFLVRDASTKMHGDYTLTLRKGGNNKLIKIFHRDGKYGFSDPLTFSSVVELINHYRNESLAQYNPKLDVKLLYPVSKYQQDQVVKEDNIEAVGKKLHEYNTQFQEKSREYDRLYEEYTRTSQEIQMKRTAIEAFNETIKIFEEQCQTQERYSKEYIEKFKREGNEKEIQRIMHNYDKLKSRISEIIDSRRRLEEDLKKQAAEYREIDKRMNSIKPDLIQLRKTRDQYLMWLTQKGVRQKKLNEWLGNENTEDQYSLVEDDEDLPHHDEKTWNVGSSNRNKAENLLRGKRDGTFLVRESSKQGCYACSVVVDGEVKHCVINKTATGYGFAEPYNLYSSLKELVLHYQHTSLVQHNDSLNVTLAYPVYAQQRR
Sequence of PDGFRα(D842V) (P16234 24-1089 D842V): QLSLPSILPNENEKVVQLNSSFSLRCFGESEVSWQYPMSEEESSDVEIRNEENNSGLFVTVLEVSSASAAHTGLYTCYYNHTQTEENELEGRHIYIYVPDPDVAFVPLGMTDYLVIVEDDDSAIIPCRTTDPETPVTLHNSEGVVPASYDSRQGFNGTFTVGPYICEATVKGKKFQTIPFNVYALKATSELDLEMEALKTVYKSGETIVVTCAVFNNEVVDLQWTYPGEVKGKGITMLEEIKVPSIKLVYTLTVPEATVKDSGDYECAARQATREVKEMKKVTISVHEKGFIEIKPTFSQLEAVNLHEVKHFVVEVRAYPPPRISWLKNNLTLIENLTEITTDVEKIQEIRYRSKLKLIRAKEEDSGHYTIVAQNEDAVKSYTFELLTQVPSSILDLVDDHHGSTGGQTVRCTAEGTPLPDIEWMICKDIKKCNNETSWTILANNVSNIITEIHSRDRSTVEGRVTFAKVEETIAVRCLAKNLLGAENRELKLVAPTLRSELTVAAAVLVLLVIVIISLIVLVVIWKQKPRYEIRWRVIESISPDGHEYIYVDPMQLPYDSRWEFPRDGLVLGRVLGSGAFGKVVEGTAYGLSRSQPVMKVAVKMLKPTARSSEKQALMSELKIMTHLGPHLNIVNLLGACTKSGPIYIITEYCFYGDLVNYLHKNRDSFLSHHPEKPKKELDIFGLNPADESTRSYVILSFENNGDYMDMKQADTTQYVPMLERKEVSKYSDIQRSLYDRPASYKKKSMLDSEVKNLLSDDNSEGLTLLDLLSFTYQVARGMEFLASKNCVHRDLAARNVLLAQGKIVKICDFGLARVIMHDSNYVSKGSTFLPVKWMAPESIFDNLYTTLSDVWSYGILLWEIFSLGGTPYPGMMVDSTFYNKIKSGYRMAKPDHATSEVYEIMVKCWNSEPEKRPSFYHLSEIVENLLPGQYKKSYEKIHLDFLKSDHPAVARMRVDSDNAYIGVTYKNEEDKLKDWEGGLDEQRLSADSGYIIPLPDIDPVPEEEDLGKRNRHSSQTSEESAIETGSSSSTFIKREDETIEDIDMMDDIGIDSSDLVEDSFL
T1 sequence (Q14680 whole entry): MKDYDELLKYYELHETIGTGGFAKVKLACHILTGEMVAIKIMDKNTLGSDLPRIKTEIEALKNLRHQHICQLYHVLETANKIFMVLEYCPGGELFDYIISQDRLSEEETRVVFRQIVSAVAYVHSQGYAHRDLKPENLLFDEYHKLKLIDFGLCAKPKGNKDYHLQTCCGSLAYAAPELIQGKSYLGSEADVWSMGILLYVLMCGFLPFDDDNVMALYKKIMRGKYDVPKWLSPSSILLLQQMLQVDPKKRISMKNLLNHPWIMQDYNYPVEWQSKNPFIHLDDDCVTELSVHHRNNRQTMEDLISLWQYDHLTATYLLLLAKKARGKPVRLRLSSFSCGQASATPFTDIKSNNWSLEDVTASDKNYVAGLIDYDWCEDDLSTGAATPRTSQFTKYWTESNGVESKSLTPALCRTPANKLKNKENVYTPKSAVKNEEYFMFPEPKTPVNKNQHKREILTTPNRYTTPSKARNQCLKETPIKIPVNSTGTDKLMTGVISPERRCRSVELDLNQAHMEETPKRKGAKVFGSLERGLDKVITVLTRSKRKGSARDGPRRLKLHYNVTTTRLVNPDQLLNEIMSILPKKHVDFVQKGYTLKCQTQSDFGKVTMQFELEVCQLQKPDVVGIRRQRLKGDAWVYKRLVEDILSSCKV
Sequence of PIM-1 (P11309 whole entry): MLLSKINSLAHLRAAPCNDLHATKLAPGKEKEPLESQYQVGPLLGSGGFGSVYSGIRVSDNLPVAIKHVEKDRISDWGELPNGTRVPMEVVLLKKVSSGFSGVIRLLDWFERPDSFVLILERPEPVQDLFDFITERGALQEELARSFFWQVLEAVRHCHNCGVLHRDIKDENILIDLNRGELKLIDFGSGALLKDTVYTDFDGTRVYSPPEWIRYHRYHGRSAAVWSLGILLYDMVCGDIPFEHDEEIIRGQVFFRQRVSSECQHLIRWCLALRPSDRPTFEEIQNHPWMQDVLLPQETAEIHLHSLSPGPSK

For the compound `CN[C@@H]1C[C@H]2O[C@@](C)([C@@H]1OC)n1c3ccccc3c3c4c(c5c6ccccc6n2c5c31)C(=O)NC4` [staurosporine], the EC50 in test [1] turned out to be 0.007 µM.
`CC(C)(C#N)c1ccc(-c2n[nH]c3cnc4ccc(-c5ccc6c(c5)CC=N6)cc4c23)cc1` [Compound 1114, 2-(4-(8-(3H-indol-5-yl)-3H-pyrazolo[3,4-c]quinolin-1-yl)phenyl)-2-methylpropanenitrile]: the figures for the IC50 in test [2], in test [3] and in test [4] were over 0.03 µM, over 0.1 µM and over 0.02 µM, respectively.
For `CC(C)(C#N)c1ccc(-c2n[nH]c3cnc4ccc(-c5cccc(Cl)c5)cc4c23)cc1` [Compound 1113, 2-(4-(8-(3-chlorophenyl)-3H-pyrazolo[3,4-c]quinolin-1-yl)phenyl)-2-methylpropanenitrile], the inhibition at 1 µM in test [5] was 50 to 60%; in test [6] it was at least 70%. For the same compound, the IC50 in test [2] was over 0.03 µM; in test [3], over 0.1 µM.
Compound `Cc1ccccc1-c1ccc2ncc3[nH]nc(-c4ccc(C(C)(C)C#N)cc4)c3c2c1` [Compound 1124, 2-methyl-2-(4-(8-o-tolyl-3H-pyrazolo[3,4-c]quinolin-1-yl)phenyl)propanenitrile] showed an IC50 in test [2] of over 0.03 µM. In test [6], this compound yielded an inhibition at 1 µM of over 60%.
For the compound `CC(C)(C#N)c1ccc(-c2n[nH]c3cnc4ccc(-c5cccc(Nc6ccncc6)c5)cc4c23)cc1` [Compound 1121, 2-methyl-2-(4-(8-(3-(pyridin-4-ylamino)phenyl)-3H-pyrazolo[3,4-c]quinolin-1-yl)phenyl)propanenitrile], the inhibition at 1 µM in test [5] was over 95%; in test [6] it was over 97%. Moreover, the IC50 was 0.012 to 0.02 µM in test [2], over 0.1 µM in test [3] and over 0.02 µM in test [4].
Consider `Cc1ccc(-c2ccc3ncc4[nH]nc(-c5ccc(C(C)(C)C#N)cc5)c4c3c2)cc1` [Compound 1126, 2-methyl-2-(4-(8-p-tolyl-3H-pyrazolo[3,4-c]quinolin-1-yl)phenyl)propanenitrile], for which the IC50 in test [2] is over 0.03 µM.
With `COc1cccc(-c2ccc3ncc4[nH]nc(-c5ccc(C(C)(C)C#N)cc5)c4c3c2)c1` [Compound 1115, 2-(4-(8-(3-methoxyphenyl)-3H-pyrazolo[3,4-c]quinolin-1-yl)phenyl)-2-methylpropanenitrile], the inhibition at 1 µM in test [5] was 60 to 85%; in test [6], over 60%. In addition, the results for the IC50 in test [2] and in test [3] were over 0.03 µM and over 1 µM, respectively.
In test [4], `CC(C)(C#N)c1ccc(-c2n[nH]c3cnc4ccc(-c5cccc(Nc6ccccn6)c5)cc4c23)cc1` [Compound 1120, 2-methyl-2-(4-(8-(3-(pyridin-2-ylamino)phenyl)-3H-pyrazolo[3,4-c]quinolin-1-yl)phenyl)propanenitrile] yielded an IC50 of over 0.02 µM.
On to `CC(C)(C#N)c1ccc(-c2n[nH]c3cnc4ccc(-c5cc(F)cc(F)c5)cc4c23)cc1` [Compound 1112, 2-(4-(8-(3,5-difluorophenyl)-3H-pyrazolo[3,4-c]quinolin-1-yl)phenyl)-2-methylpropanenitrile], for which the 50% inhibitory concentration (IC50) in test [2] is over 0.03 µM; in test [3] it was over 0.1 µM. The compound further had an inhibition at 1 µM in test [6] of at least 75%.
As for `COc1ccc(-c2ccc3ncc4[nH]nc(-c5ccc(C(C)(C)C#N)cc5)c4c3c2)cn1` [Compound 1118, 2-(4-(8-(6-methoxypyridin-3-yl)-3H-pyrazolo[3,4-c]quinolin-1-yl)phenyl)-2-methylpropanenitrile], the values for the IC50 in test [2], in test [3] and in test [4] were over 0.03 µM, over 1 µM and under 0.01 µM, respectively.
`Cc1cccc(-c2ccc3ncc4[nH]nc(-c5ccc(C(C)(C)C#N)cc5)c4c3c2)c1` [Compound 1123, 2-methyl-2-(4-(8-m-tolyl-3H-pyrazolo[3,4-c]quinolin-1-yl)phenyl)propanenitrile]: the results for the inhibition at 1 µM in test [5] and in test [6] were 50 to 60% and over 60%, respectively. Further, the IC50 in test [2] was over 0.03 µM; in test [3], over 1 µM.
Take `CC(C)(C#N)c1ccc(-c2n[nH]c3cnc4ccc(-c5ccn6ncnc6c5)cc4c23)cc1` [Compound 1111]: the inhibition at 1 µM in test [5] was over 95%; in test [6], over 97%. Also, the IC50 in test [2] was 0.02 to 0.03 µM; in test [4], over 0.02 µM.
With `CC(C)(C#N)c1ccc(-c2n[nH]c3cnc4ccc(-c5cncnc5)cc4c23)cc1` [Compound 1108, 2-methyl-2-(4-(8-(pyrimidin-5-yl)-3H-pyrazolo[3,4-c]quinolin-1-yl)phenyl)propanenitrile], the inhibition at 1 µM in test [5] is 60 to 85%; in test [6] it was over 97%. Moreover, the IC50 in test [2] was 0.012 to 0.02 µM and > 0.03 µM; in test [3], over 0.1 µM; in test [4] it was under 0.01 µM.
For the compound `COc1ccc(-c2ccc3ncc4[nH]nc(-c5ccc(C(C)(C)C#N)cc5)c4c3c2)cc1` [Compound 1117, 2-(4-(8-(4-methoxyphenyl)-3H-pyrazolo[3,4-c]quinolin-1-yl)phenyl)-2-methylpropanenitrile], the values for the inhibition at 1 µM in test [5] and in test [6] were 60 to 85% and over 50%, respectively. The compound also came in with an IC50 in test [2] of over 0.03 µM.
With `CC(C)(C#N)c1ccc(-c2n[nH]c3cnc4ccc(-c5ccc(F)cc5)cc4c23)cc1` [Compound 1116, 2-(4-(8-(4-fluorophenyl)-3H-pyrazolo[3,4-c]quinolin-1-yl)phenyl)-2-methylpropanenitrile], the inhibition at 1 µM in test [5] was 60 to 85%; in test [6], at least 75%. This compound also yielded an IC50 in test [2] of over 0.03 µM.
Regarding `CC(C)(C#N)c1ccc(-c2n[nH]c3cnc4ccc(-c5ccccc5)cc4c23)cc1` [Compound 1125, 2-methyl-2-(4-(8-phenyl-3H-pyrazolo[3,4-c]quinolin-1-yl)phenyl)propanenitrile], the inhibition at 1 µM in test [5] was 60 to 85%; in test [6], at least 75%. Moreover, the IC50 was over 0.03 µM in test [2] and over 1 µM in test [3].
